Values joined by “and” are separate entries in the source; they are usually repeats but may differ in a detail not shown here. Equal values may be shown once. Toxic doses and inconclusive results are not listed. Cut-off read from the data, not from the text of the source: active = T/C of 150% or more; inactive = T/C below 125%.
Tested on: L1210 leukemia ip in BDF1 mice, survival T/C
Test: NCI In Vivo Anticancer Drug Screen. Data for tumor model L1210 Leukemia (intraperitoneal) in B6D2F1 (BDF1) mice
Conditions: endpoint: mean survival time, higher = longer survival
Summary of the method: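 Mice bearing the transplanted tumor received compound or vehicle. Survival of the treated group was divided by that of the vehicle-treated control group to give the ratio.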

[1] = dose: 25.0 mg/kg/injection, schedule: Q01DX009 (ip), vehicle: saline with Tween-80
[2] = dose: 50.0 mg/kg/injection, schedule: Q01DX009 (ip), vehicle: saline with Tween-80
[3] = dose: 100.0 mg/kg/injection, schedule: Q01DX009 (ip), vehicle: saline with Tween-80
[4] = dose: 100.0 mg/kg/injection, schedule: Q04DX003 (ip), vehicle: saline
[5] = dose: 100.0 mg/kg/injection, schedule: Q04DX003 (ip), vehicle: Klucel (hydroxypropylcellulose) (HPC)
[6] = dose: 200.0 mg/kg/injection, schedule: Q04DX003 (ip), vehicle: Klucel (hydroxypropylcellulose) (HPC)
[7] = dose: 400.0 mg/kg/injection, schedule: Q04DX003 (ip), vehicle: Klucel (hydroxypropylcellulose) (HPC)
[8] = dose: 50.0 mg/kg/injection, schedule: Q01DX009 (ip), vehicle: saline
[9] = dose: 100.0 mg/kg/injection, schedule: Q04DX002 (ip), vehicle: Klucel (hydroxypropylcellulose) (HPC)
[10] = dose: 200.0 mg/kg/injection, schedule: Q04DX002 (ip), vehicle: Klucel (hydroxypropylcellulose) (HPC)
[11] = dose: 100.0 mg/kg/injection, schedule: Q01DX009 (ip), vehicle: Klucel (hydroxypropylcellulose) (HPC)
[12] = dose: 100.0 mg/kg/injection, schedule: Q01DX001 (ip), vehicle: carboxymethylcellulose (CMC)
[13] = dose: 200.0 mg/kg/injection, schedule: Q01DX001 (ip), vehicle: carboxymethylcellulose (CMC)
[14] = dose: 400.0 mg/kg/injection, schedule: Q01DX001 (ip), vehicle: carboxymethylcellulose (CMC)
[15] = dose: 100.0 mg/kg/injection, schedule: Q04DX003 (ip), vehicle: saline with Tween-80
[16] = dose: 200.0 mg/kg/injection, schedule: Q04DX003 (ip), vehicle: saline with Tween-80

Measured: T/C

Cc1cc(C2=NCC(C)(C)S2)ccc1O
inactive: dose: 25.0 mg/kg/injection, schedule: Q01DX005 (ip), vehicle: saline with Tween-80 92 % of control | [1] 91 % of control | dose: 50.0 mg/kg/injection, schedule: Q01DX005 (ip), vehicle: saline with Tween-80 92 % of control | [2] 98 % of control | dose: 100.0 mg/kg/injection, schedule: Q01DX005 (ip), vehicle: saline with Tween-80 93 % of control and 105 % of control | [3] 98 % of control | dose: 100.0 mg/kg/injection, schedule: Q04DX002 (ip), vehicle: saline with Tween-80 100 % of control | dose: 200.0 mg/kg/injection, schedule: Q04DX002 (ip), vehicle: saline with Tween-80 96 % of control | dose: 400.0 mg/kg/injection, schedule: Q04DX002 (ip), vehicle: saline with Tween-80 88 % of control

NC(N)=Nc1ccccc1 (tested in a mixture with another compound)
inactive: [4] 100 % of control | dose: 200.0 mg/kg/injection, schedule: Q04DX003 (ip), vehicle: saline 100 % of control

Cc1cc(N)c(C)c2ccncc12
inactive: dose: 5.0 mg/kg/injection, schedule: Q01DX001 (ip), vehicle: saline 103 % of control

O=C(OC1C=CCC1)c1ccc([N+](=O)[O-])cc1 (stereo not given)
inactive: [5] 97 % of control | [6] 93 % of control | [7] 93 % of control

COc1ccc(CCNC(=O)C(=O)NCCc2ccc(OC)c(OC)c2)cc1OC
inactive: [5] 101 % of control | [6] 89 % of control | [7] 92 % of control

NC(N)=NNc1ccccc1
inactive: [1] 115 % of control | [2] 107 % of control | [8] 95 % of control | [3] 86 % of control | dose: 100.0 mg/kg/injection, schedule: Q01DX009 (ip), vehicle: saline 97 % of control

NNc1ccc(Br)cc1
inactive: [9] 102 % of control | [10] 115 % of control

CC(C)(C)C1(C)CNC(=O)O1 (stereo not given)
inactive: dose: 6.0 mg/kg/injection, schedule: Q01DX009 (ip), vehicle: Klucel (hydroxypropylcellulose) (HPC) 100 % of control | dose: 12.0 mg/kg/injection, schedule: Q01DX009 (ip), vehicle: Klucel (hydroxypropylcellulose) (HPC) 104 % of control | dose: 25.0 mg/kg/injection, schedule: Q01DX009 (ip), vehicle: Klucel (hydroxypropylcellulose) (HPC) 102 % of control | dose: 25.0 mg/kg/injection, schedule: Q04DX003 (ip), vehicle: Klucel (hydroxypropylcellulose) (HPC) 102 % of control | dose: 50.0 mg/kg/injection, schedule: Q01DX009 (ip), vehicle: Klucel (hydroxypropylcellulose) (HPC) 101 % of control | dose: 50.0 mg/kg/injection, schedule: Q04DX003 (ip), vehicle: Klucel (hydroxypropylcellulose) (HPC) 102 % of control | [11] 101 % of control | [5] 95 % of control and 89 % of control

O=[N+]([O-])c1cc(S(=O)(=O)O)cc([N+](=O)[O-])c1Cl
inactive: dose: 75.0 mg/kg/injection, schedule: Q01DX001 (ip), vehicle: saline 112 % of control | dose: 150.0 mg/kg/injection, schedule: Q01DX001 (ip), vehicle: saline 109 % of control | dose: 300.0 mg/kg/injection, schedule: Q01DX001 (ip), vehicle: saline 113 % of control

O=C(Nc1ccc(F)cc1)Oc1ccc(OCc2ccccc2)cc1
inactive: [12] 95 % of control | dose: 100.0 mg/kg/injection, schedule: Q01DX009 (ip), vehicle: carboxymethylcellulose (CMC) 99 % of control and 103 % of control | dose: 100.0 mg/kg/injection, schedule: Q04DX002 (ip), vehicle: carboxymethylcellulose (CMC) 93 % of control and 98 % of control | [13] 101 % of control | dose: 200.0 mg/kg/injection, schedule: Q01DX009 (ip), vehicle: carboxymethylcellulose (CMC) 95 % of control and 99 % of control | dose: 200.0 mg/kg/injection, schedule: Q04DX002 (ip), vehicle: carboxymethylcellulose (CMC) 98 % of control and 100 % of control | [14] 101 % of control | dose: 400.0 mg/kg/injection, schedule: Q01DX009 (ip), vehicle: carboxymethylcellulose (CMC) 95 % of control and 91 % of control | dose: 400.0 mg/kg/injection, schedule: Q04DX002 (ip), vehicle: carboxymethylcellulose (CMC) 96 % of control and 100 % of control

Cc1ccc(NC(=O)NCC2(C)CC(NC(=O)Nc3ccc(C)cc3)CC(C)(C)C2)cc1 (stereo not given)
inactive: [2] 87 % of control | [15] 91 % of control | [16] 91 % of control

N#Cc1c(F)c(F)c(Oc2c(F)c(F)c(Oc3c(F)c(F)c(C#N)c(F)c3F)c(F)c2F)c(F)c1F
inactive: dose: 100.0 mg/kg/injection, schedule: Q01DX001 (ip), vehicle: Klucel (hydroxypropylcellulose) (HPC) 97 % of control | [5] 94 % of control | dose: 200.0 mg/kg/injection, schedule: Q01DX001 (ip), vehicle: Klucel (hydroxypropylcellulose) (HPC) 97 % of control | [6] 94 % of control | dose: 400.0 mg/kg/injection, schedule: Q01DX001 (ip), vehicle: Klucel (hydroxypropylcellulose) (HPC) 89 % of control | [7] 92 % of control

COc1ccc(C(O)C2c3c(cc4c(c3OC)OCO4)CCN2C)c(CO)c1OC (stereo not given)
inactive: dose: 75.0 mg/kg/injection, schedule: Q01DX001 (ip), vehicle: carboxymethylcellulose (CMC) 100 % of control | dose: 150.0 mg/kg/injection, schedule: Q01DX001 (ip), vehicle: carboxymethylcellulose (CMC) 105 % of control

Clc1ccc(Cl)c(Nc2ccnc(SCc3ccccc3)n2)c1
inactive: dose: 100.0 mg/kg/injection, schedule: Q01DX Z (ip), vehicle: methylcellulose (MC) 92 % of control | dose: 200.0 mg/kg/injection, schedule: Q01DX Z (ip), vehicle: methylcellulose (MC) 88 % of control

[Br][V]([Br])[Br]
inactive: dose: 12.0 mg/kg/injection, schedule: Q01DX009 (ip), vehicle: saline 97 % of control | dose: 25.0 mg/kg/injection, schedule: Q01DX009 (ip), vehicle: saline sonified 92 % of control | dose: 25.0 mg/kg/injection, schedule: Q01DX009 (ip), vehicle: saline 93 % of control | [8] 102 % of control | [4] 102 % of control

O=C(CCCCC(=O)N/N=C\c1ccccc1O)N/N=C\c1ccccc1O
inactive: [15] 87 % of control | [16] 89 % of control | dose: 400.0 mg/kg/injection, schedule: Q04DX003 (ip), vehicle: saline with Tween-80 87 % of control

COc1ccc2c(c1)CC1(CC2)NCC(=O)NC1=O (stereo not given)
inactive: [12] 97 % of control | [13] 97 % of control | [14] 115 % of control

CC/C(=C(\CC)c1ccc(OC)cc1)c1ccc(O)cc1
inactive: dose: 15.0 mg/kg/injection, schedule: Q01DX Z (sc), vehicle: steriod suspending solution 105 % of control | dose: 30.0 mg/kg/injection, schedule: Q01DX Z (sc), vehicle: steriod suspending solution 106 % of control | dose: 60.0 mg/kg/injection, schedule: Q01DX Z (sc), vehicle: steriod suspending solution 96 % of control and 103 % of control | dose: 90.0 mg/kg/injection, schedule: Q01DX Z (sc), vehicle: steriod suspending solution 103 % of control | dose: 135.0 mg/kg/injection, schedule: Q01DX Z (sc), vehicle: steriod suspending solution 102 % of control | dose: 200.0 mg/kg/injection, schedule: Q01DX001 (ip), vehicle: saline 96 % of control | dose: 200.0 mg/kg/injection, schedule: Q01DX Z (sc), vehicle: steriod suspending solution 100 % of control | dose: 250.0 mg/kg/injection, schedule: Q01DX015 (sc), vehicle: steriod suspending solution 97 % of control | dose: 400.0 mg/kg/injection, schedule: Q01DX001 (ip), vehicle: saline 104 % of control | dose: 500.0 mg/kg/injection, schedule: Q01DX015 (sc), vehicle: steriod suspending solution 93 % of control | dose: 750.0 mg/kg/injection, schedule: Q01DX015 (sc), vehicle: steriod suspending solution 95 % of control | dose: 800.0 mg/kg/injection, schedule: Q01DX001 (ip), vehicle: saline 98 % of control | dose: 1000.0 mg/kg/injection, schedule: Q01DX015 (sc), vehicle: steriod suspending solution 90 % of control

COc1ccc(N2C=C(c3ccccc3)CC2=O)cc1
inactive: [9] 94 % of control | [10] 94 % of control | dose: 400.0 mg/kg/injection, schedule: Q04DX002 (ip), vehicle: Klucel (hydroxypropylcellulose) (HPC) 97 % of control

O=C(COc1ccc(Cl)cc1)Nc1ccc(Cl)cc1
inactive: [11] 91 % of control | [5] 92 % of control | [6] 93 % of control | dose: 400.0 mg/kg/injection, schedule: Q01DX009 (ip), vehicle: Klucel (hydroxypropylcellulose) (HPC) 88 % of control | [7] 93 % of control
